The nature of data set [1]: Test Example 1: Evaluation of the solubility in an organic solvent (saturated solution, HPLC). Format: physicochemical. The note with it: for amount of the compound dissolved in 100 g of organic solvent: per 100 g solvent, 20° C., saturated, stirred one hour or longer; for solubility as compared to the compound in Reference Synthesis Example 3: in toluene, cyclopentyl methyl ether, and ethyl acetate. The procedure:
In the measurement of the solubility, the compounds obtained in Synthesis Examples 2 and 6 and Reference Synthesis Example 3 were used.
A test compound was dissolved in toluene, cyclopentyl methyl ether, or ethyl acetate so as to be saturated, and stirred at 20° C. for one hour or longer. The obtained solution was subjected to centrifugal filtration, and then the resultant filtrate was subjected to analysis under the below-shown conditions for measurement, determining an amount of the test compound dissolved.
(§1) • High performance liquid chromatography: HPLC-20A, manufactured by SHIMADZU Corporation • Column: XBridge C18 (2.5 μm, 4.6×100 mm) • Column oven temperature: 40° C. • Eluent: A=0.2 vol % aqueous solution of trifluoroacetic acid • B=0.2 vol % acetonitrile solution of trifluoroacetic acid • AB=50/50 (0 to 2 minutes), 50/50 to 0/100 (2 to 15 minutes), 0/100 (15 to 40 minutes) • Eluent flow rate: 1.0 mL/minute • Wavelength for detection: 210 nm [Results of Test]
The compounds in Synthesis Examples 2 and 6 were improved in the solubility in toluene, cyclopentyl methyl ether, and ethyl acetate, as compared to the compound in Reference Synthesis Example 3.

Data set [2] can be described thus: Test Example 2: Evaluation of the solubility in an organic solvent (HPLC). Format: physicochemical. Conditions: for amount of the compound dissolved in 100 g of organic solvent: per 100 g solvent, 20° C., stirred one hour or longer. As to the method: In the measurement of the solubility, the compound obtained in Synthesis Example 8 was used.
A test compound was dissolved in toluene, cyclopentyl methyl ether, or ethyl acetate, and stirred at 20° C. for one hour or longer. The obtained solution was subjected to centrifugal filtration, and then the resultant filtrate was subjected to analysis under the below-shown conditions for measurement, determining an amount of the test compound dissolved.
as §1
The compound in Synthesis Example 8 was improved in the solubility in toluene, cyclopentyl methyl ether, and ethyl acetate, as compared to the compound in Reference Synthesis Example 3.

A value given as a limit tells only on which side of the number the result lay.

For the compound `C[Si](C)(C)CCOC(=O)[C@H](Cc1ccccc1)NC(=O)[C@H](Cc1ccccc1)NC(=O)OCC1c2ccccc2-c2ccccc21` [Reference Synthesis Example 3, Fmoc-Phe-Phe-OTMSE, reference compound], the “amount of the compound dissolved in 100 g of organic solvent” value (“amount of the compound dissolved” for short) in data set [1] (cyclopentyl methyl ether) turned out to be 1.4 g; in data set [1] (ethyl acetate), 4.5 g; in data set [1] (toluene) it was 0.87 g; in data set [2] (cyclopentyl methyl ether) it was 1.4 g; in data set [2] (ethyl acetate), 4.5 g; in data set [2] (toluene), 0.87 g.
On to `CC[Si](CC)(CCCOCC(CCC(C)CC(C)(C)C)C(C)CC(C)(C)C)CCOC(=O)[C@H](Cc1ccccc1)NC(=O)[C@H](Cc1ccccc1)NC(=O)OCC1c2ccccc2-c2ccccc21` (stereo partly drawn) [Synthesis Example 2, Fmoc-Phe-Phe-OFESE], for which the “amount of the compound dissolved” value was 111 g in data set [1] (cyclopentyl methyl ether), 97 g in data set [1] (ethyl acetate) and 116 g in data set [1] (toluene). Further, the “solubility as compared to the compound in Reference Synthesis Example 3” value (“solubility as compared to the compound” below) in data set [1] is reported as “improved”.
On to `CCCCCCCCCCCCCCCCCC[Si](C)(C)CCOC(=O)[C@H](Cc1ccccc1)NC(=O)[C@H](Cc1ccccc1)NC(=O)OCC1c2ccccc2-c2ccccc21` [Synthesis Example 6, Fmoc-Phe-Phe-ODMSE], for which the figures for the “amount of the compound dissolved” value in data set [1] (cyclopentyl methyl ether), in data set [1] (ethyl acetate) and in data set [1] (toluene) were 41 g, 8.4 g and 38 g, respectively. In addition, in data set [1], the “solubility as compared to the compound” value was “improved”.
In the case of `CC(CCC(COCCC[Si](CCOC(=O)[C@H](Cc1ccccc1)NC(=O)[C@H](Cc1ccccc1)NC(=O)OCC1c2ccccc2-c2ccccc21)(c1ccccc1)c1ccccc1)C(C)CC(C)(C)C)CC(C)(C)C` (stereo partly drawn) [Synthesis Example 8, Fmoc-Phe-Phe-OFPSE], the “amount of the compound dissolved” value in data set [2] (cyclopentyl methyl ether), in data set [2] (ethyl acetate) and in data set [2] (toluene) was above 140 g each time. Besides, in data set [2] (in toluene, cyclopentyl methyl ether, and ethyl acetate), the “solubility as compared to the compound” value is “improved”.

For the origin of these results see patent US12466850B2, “Method for producing peptide compound” (priority 2019, dated 2025).
